Patent US6645966B2, “Treatment of malaria with farnesyl protein transferase inhibitors” (Schering Corporation, priority 2001, dated 2003)
Like-named read-outs stand apart in the source and are kept apart here.

Tests used:
[1] = tested on: P. falciparum (strain C10, partially chloroquine resistant strain); assay: In Vitro Plasmodium falciparum Growth Inhibition Assay ([3H]-hypoxanthine uptake into infected erythrocytes); assay type: cell-based; conditions: Erythrocyte
Procedure: The growth activity of P. falciparum was determined by measuring the uptake of the radiolabeled nucleic acid precursor [3H]-hypoxanthine from the media into infected erythrocytes by a method similar to that reported by Jomaa et al (1999). In this method human red blood cells (RBC) were infected with P. falciparum (strain C10, partially chloroquine resistant strain) to 0.4% parasitemia (0.4% of the RBC contain at least 1 parasite). The infected human RBC cells were adjusted to a hematocrit of 2% and 200 μl was plated into 96 well plates. DMSO solutions of inhibitors were added to the plates to make final concentrations of inhibitors from 20 μM to 0.2 μM and a final concentration of DMSO between 0.2 and 1%. The inhibitor-RBC solutions were incubated for 48 hours followed by the addition of [3H]-hypoxanthine to each well and further incubated for 24 hours. The incorporation of [3H]-hypoxanthine into the parasite DNA was measured by acid precipitating the nucleic acid content onto filters, washing the filters and counting the incorporated radioactivity in a scintillation counter.

Structure (SMILES)	melting point	also measured
CCN(CC)CCCC(C)Nc1ccnc2cc(Cl)ccc12 (stereo not shown) [chloroquine]	–	EC50 ([1]; read-out: ED50): 260 nM
Clc1ccc2c(c1)CCc1cccnc1C2N1CCC[C@H](Cn2ccnc2)C1 (single isomer, unassigned)	71 to 75 °C	–
O=CN(O)CCCP(=O)(O)O [fosmidomycin]	–	EC50 ([1]; P. falciparum strain C10 in infected human RBC, 0.4% parasitemia, 48 hours incubation then [3H]-hypoxanthine for 24 hours, read-out: ED50 (the source's name)): 600 nM
N#Cc1ccc(Cn2cncc2CCNC(=O)[C@H]2CN(Cc3ccncc3)CCN2C(=O)NC2CCCCC2)cc1	80 °C (dec.)	–
